{"source": "paper PMC7167990", "about": "“Therapeutic Effects of Atranorin towards the Proliferation of Babesia and Theileria Parasites” (Pathogens, 2020)", "key": {"MDBK cells": {"test_system": "MDBK cells", "experiment": "Cytotoxicity assay (CCK-8 cell viability)", "type": "cell-based, bovine", "settings": "for EC50: MDBK cells, 24 h, CCK-8", "method": "Cultures of human foreskin fibroblast (HFF; HFF-1 ATCC® SCRC-1041™), Madin–Darby bovine kidney (MDBK; ECACC) and mouse embryonic fibroblast (NIH/3T3; ATCC® CRL-1658™) cells were retrieved from −80 °C stock and cultured continuously at 37 °C under atmosphere 5% CO2 in our laboratory. The NIH/3T3 and HFFs cells were maintained in Dulbecco Modified Eagle’s Medium (DMEM; Gibco, Grand Island, NY, USA), while MDBK cell line grown in Minimum Essential Medium Eagle (MEM; Gibco). Each medium was treated with 0.5% penicillin/streptomycin (Gibco), 10% inactivated fetal bovine serum and 2 mM glutamine. Every 72 to 96 h, the medium was replaced, and once 80% confluence was reached, the cell collection was performed by sub-culture protocol. To confirm the absence of mycoplasma contamination, 4,6-diamidino-2-phenylindole dihydrochloride stain (Sigma-Aldrich) was used.\nThe cell viability test was conducted in a 96-well plate as described elsewhere. Briefly, an aliquot of (100 µL) cells was implanted at a concentration of 5 × 10^4 cells/mL in DMEM or MEM with fetal bovine serum and incubated overnight under atmosphere 5% CO2 at 37 °C for attachment. Using two-fold dilutions, aliquots (10 µL) of drugs were added in triplicate per well to attain final concentrations of 50 to 1000 µM and further incubated for 24 h. The positive control wells containing cells mixed with the medium in 0.4% DMSO, whereas the negative control wells containing culture medium only. After a 24-h incubation, Cell Counting Kits-8 (CCK-8, 10 µL) was added to each well and then plate incubation was conducted for an additional 3 h and a microplate reader was used to assess the absorbance at 450 nm."}, "hepatitis C virus (HCV)": {"test_system": "hepatitis C virus (HCV)", "parameters": "method as in PMID 25793970", "settings": "antiviral activity against hepatitis C virus (HCV); cited from earlier work"}, "B. bovis": {"test_system": "B. bovis", "experiment": "Parasite viability test in vitro (regrowth after drug withdrawal, microscopy)", "type": "cell-based", "parameters": "key: a positive (+) indicates parasites regrowth; a negative (–) shows the parasites total clearance after drug pressure withdrawal using microscopy assay", "settings": "4 days treatment, then drug-free culture", "method": "(§1) The viability studies of ATR-treated parasites were monitored via microscopy as reported elsewhere. In a 96-well microtiter plate, an aliquot of 1% parasitemia (10 µL) of iRBCs was cultivated with 90 µL of respective media containing various concentrations of ATR and DA for 4 successive days with changing media daily. […] On the fifth day, a mixture of iRBCs (3 µL) from each well and fresh equine or bovine RBCs (7 µL) was transferred to another plate, cultured in a medium free from drug and then left for an additional six days. The total parasite clearance was recorded as negative, while the relapse of parasites was recorded as positive."}, "B. divergens": {"test_system": "B. divergens", "experiment": "Parasite viability test in vitro (regrowth after drug withdrawal, microscopy)", "type": "cell-based", "parameters": "key: a positive (+) indicates parasites regrowth; a negative (–) shows the parasites total clearance after drug pressure withdrawal using microscopy assay", "settings": "4 days treatment, then drug-free culture", "method": "as §1"}, "B. caballi": {"test_system": "B. caballi", "experiment": "Parasite viability test in vitro (regrowth after drug withdrawal, microscopy)", "type": "cell-based", "parameters": "key: a positive (+) indicates parasites regrowth; a negative (–) shows the parasites total clearance after drug pressure withdrawal using microscopy assay", "settings": "4 days treatment, then drug-free culture", "method": "as §1"}, "B. bigemina": {"test_system": "B. bigemina", "experiment": "Parasite viability test in vitro (regrowth after drug withdrawal, microscopy)", "type": "cell-based", "parameters": "key: a positive (+) indicates parasites regrowth; a negative (–) shows the parasites total clearance after drug pressure withdrawal using microscopy assay", "settings": "4 days treatment, then drug-free culture", "method": "as §1"}, "T. equi": {"test_system": "T. equi", "experiment": "Parasite viability test in vitro (regrowth after drug withdrawal, microscopy)", "type": "cell-based", "parameters": "key: a positive (+) indicates parasites regrowth; a negative (–) shows the parasites total clearance after drug pressure withdrawal using microscopy assay", "settings": "4 days treatment, then drug-free culture", "method": "as §1"}, "equine RBCs (T. equi)": {"test_system": "equine RBCs (T. equi)", "experiment": "Impact of ATR pretreatment of equine RBCs on later parasite proliferation", "type": "cell-based", "settings": "400 µM ATR for 3 and 6 h, then T. equi subculture", "method": "(§2) Prior to parasite subculture, a concentration of 400 µM of ATR was mixed with fresh bovine and equine RBCs and incubated at a humidified incubator for 3 and 6 h. Afterward, the pretreated-RBCs were mixed with B. divergens and T. equi infected RBCs (iRBCs) after washing thrice with PBS to achieve 1% parasitemia. Thereafter, using a 24-well plate, an aliquot of iRBCs (100 μL) was mixed with culture media (900 μL); the control RBCs were left untreated. To monitor the parasitemia and any side effects due to the pretreatment, Giemsa-stained smears were prepared every 24 h for four days."}, "Plasmodium species": {"test_system": "Plasmodium species", "parameters": "method as in earlier work", "settings": "ATR combined with quinine; cited from earlier work"}, "[1]": {"test_system": "bovine RBCs (B. divergens)", "experiment": "Impact of ATR pretreatment of bovine RBCs on later parasite proliferation", "type": "cell-based", "settings": "400 µM ATR for 3 and 6 h, then B. divergens subculture", "method": "as §2"}, "[2]": {"test_system": "LLC/MK2 monkey kidney epithelial cells", "parameters": "method as in PMID 21487780", "settings": "cited from earlier work"}}, "note": "Where “and” joins values, the source holds several entries; their conditions need not be identical. Equal entries are not always repeated."}
{"smiles": "COC(=O)c1c(C)cc(OC(=O)c2c(C)cc(O)c(C=O)c2O)c(C)c1O", "note": "[ATR, Atranorin]", "values": [{"measurement": "EC50", "setting": "MDBK cells; Bos taurus", "value": "775 ± 16", "unit": "µM"}, {"measurement": "Selective Index MDBK", "setting": "MDBK cells; EC50 MDBK / IC50 B. bigemina", "value": 12.0}, {"measurement": "Selective Index MDBK", "setting": "MDBK cells; EC50 MDBK / IC50 B. bovis", "value": 7.9}, {"measurement": "Selective Index MDBK", "setting": "MDBK cells; EC50 MDBK / IC50 B. caballi", "value": 16.6}, {"measurement": "Selective Index MDBK", "setting": "MDBK cells; EC50 MDBK / IC50 B. divergens", "value": 17.1}, {"measurement": "Selective Index MDBK", "setting": "MDBK cells; EC50 MDBK / IC50 T. equi", "value": "10.6 and 10.9"}, {"measurement": "IC50", "setting": "hepatitis C virus (HCV)", "value": "22.3 ± 8", "unit": "µM"}, {"measurement": "Viability", "setting": "B. bovis; A1 = 0.25× IC50, 24.6 µM", "value": "+"}, {"measurement": "Viability", "setting": "B. bovis; A2 = 0.5× IC50, 49.2 µM", "value": "+"}, {"measurement": "Viability", "setting": "B. bovis; A3 = 1× IC50, 98.4 µM", "value": "+"}, {"measurement": "Viability", "setting": "B. bovis; A4 = 2× IC50, 196.8 µM", "value": "completely suppressed and did not revive and –"}, {"measurement": "Viability", "setting": "B. bovis; A5 = 4× IC50, 393.6 µM", "value": "–"}, {"measurement": "Viability", "setting": "B. bovis; A6 = 6× IC50, 590.4 µM", "value": "–"}, {"measurement": "Viability", "setting": "B. divergens; A1 = 0.25× IC50, 11.3 µM", "value": "+"}, {"measurement": "Viability", "setting": "B. divergens; A2 = 0.5× IC50, 22.6 µM", "value": "+"}, {"measurement": "Viability", "setting": "B. divergens; A3 = 1× IC50, 45.2 µM", "value": "+"}, {"measurement": "Viability", "setting": "B. divergens; A4 = 2× IC50, 90.4 µM", "value": "+"}, {"measurement": "Viability", "setting": "B. divergens; A5 = 4× IC50, 180.8 µM", "value": "cleared and did not revive and –"}, {"measurement": "Viability", "setting": "B. divergens; A6 = 6× IC50, 271.2 µM", "value": "–"}, {"measurement": "Viability", "setting": "B. caballi; A1 = 0.25× IC50, 11.65 µM", "value": "+"}, {"measurement": "Viability", "setting": "B. caballi; A2 = 0.5× IC50, 23.3 µM", "value": "+"}, {"measurement": "Viability", "setting": "B. caballi; A3 = 1× IC50, 46.6 µM", "value": "+"}, {"measurement": "Viability", "setting": "B. caballi; A4 = 2× IC50, 93.2 µM", "value": "completely suppressed and did not revive and –"}, {"measurement": "Viability", "setting": "B. caballi; A5 = 4× IC50, 186.4 µM", "value": "–"}, {"measurement": "Viability", "setting": "B. caballi; A6 = 6× IC50, 279.6 µM", "value": "–"}, {"measurement": "Viability", "setting": "B. bigemina; A1 = 0.25× IC50, 16.1 µM", "value": "+"}, {"measurement": "Viability", "setting": "B. bigemina; A2 = 0.5× IC50, 32.25 µM", "value": "+"}, {"measurement": "Viability", "setting": "B. bigemina; A3 = 1× IC50, 64.5 µM", "value": "+"}, {"measurement": "Viability", "setting": "B. bigemina; A4 = 2× IC50, 129 µM", "value": "completely suppressed and did not revive and –"}, {"measurement": "Viability", "setting": "B. bigemina; A5 = 4× IC50, 258 µM", "value": "–"}, {"measurement": "Viability", "setting": "B. bigemina; A6 = 6× IC50, 387 µM", "value": "–"}, {"measurement": "Viability", "setting": "T. equi; A1 = 0.25× IC50, 17.8 µM", "value": "+"}, {"measurement": "Viability", "setting": "T. equi; A2 = 0.5× IC50, 35.6 µM", "value": "+"}, {"measurement": "Viability", "setting": "T. equi; A3 = 1× IC50, 71.3 µM", "value": "+"}, {"measurement": "Viability", "setting": "T. equi; A4 = 2× IC50, 142.6 µM", "value": "+"}, {"measurement": "Viability", "setting": "T. equi; A5 = 4× IC50, 285.2 µM", "value": "+"}, {"measurement": "Viability", "setting": "T. equi; A6 = 6× IC50, 427.8 µM", "value": "suppressed and –"}, {"measurement": "parasite proliferation in ATR-pretreated RBCs versus untreated RBCs", "setting": "equine RBCs (T. equi)", "value": "did not show a significant difference"}, {"measurement": "combined treatment efficacy with quinine", "setting": "Plasmodium species", "value": "slight antagonistic efficacy"}, {"measurement": "parasite proliferation in ATR-pretreated RBCs versus untreated RBCs", "setting": "[1]", "value": "did not show a significant difference"}, {"measurement": "cytotoxic action", "setting": "[2]", "value": "mild cytotoxic action"}]}
{"smiles": "O=C1C(O)=C([C@H]2CC[C@H](c3ccc(Cl)cc3)CC2)C(=O)c2ccccc21", "note": "[AV, atovaquone]", "values": [{"measurement": "EC50", "setting": "MDBK cells; Bos taurus", "value": "> 100", "unit": "µM"}, {"measurement": "Selective Index MDBK", "setting": "MDBK cells; EC50 MDBK / IC50 B. bigemina", "value": "˃142.7"}, {"measurement": "Selective Index MDBK", "setting": "MDBK cells; EC50 MDBK / IC50 B. bovis", "value": "˃2564"}, {"measurement": "Selective Index MDBK", "setting": "MDBK cells; EC50 MDBK / IC50 B. caballi", "value": "˃980.4"}, {"measurement": "Selective Index MDBK", "setting": "MDBK cells; EC50 MDBK / IC50 B. divergens", "value": "˃2631"}, {"measurement": "Selective Index MDBK", "setting": "MDBK cells; EC50 MDBK / IC50 T. equi", "value": "˃1052"}]}
{"smiles": "CC(=O)NCC(=O)O.CC(=O)NCC(=O)O.N=C(N)c1ccc(N=NNc2ccc(C(=N)N)cc2)cc1", "note": "[DA, diminazene aceturate]", "values": [{"measurement": "Selective Index MDBK", "setting": "MDBK cells; EC50 MDBK / IC50 B. bigemina", "value": "˃147.1"}, {"measurement": "Selective Index MDBK", "setting": "MDBK cells; EC50 MDBK / IC50 B. bovis", "value": "˃285.7"}, {"measurement": "Selective Index MDBK", "setting": "MDBK cells; EC50 MDBK / IC50 B. caballi", "value": "˃5000"}, {"measurement": "Selective Index MDBK", "setting": "MDBK cells; EC50 MDBK / IC50 B. divergens", "value": "˃232.5"}, {"measurement": "Selective Index MDBK", "setting": "MDBK cells; EC50 MDBK / IC50 T. equi", "value": "˃140.8"}, {"measurement": "EC50", "setting": "MDBK cells", "value": "> 100", "unit": "µM"}]}
